# Patent US11123434B2, “Drug delivery device and its method of manufacture” (City University of Hong Kong, priority 2017, dated 2021)
# Assay: Drug release from loaded sponges at 37° C. in deionized water
# Format: physicochemical
# Conditions: comparison among model drugs MB, ORO, TH
# Text: To maintain constant therapeutic levels for prolonged periods and to reduce the total dose of administration, the ability of a carrier to prolong drug release is required.
smiles,measurement,value
CN(C)[C@@H]1C(=O)C(C(N)=O)=C(O)[C@@]2(O)C(=O)C3=C(O)c4c(O)cccc4[C@@](C)(O)[C@H]3C[C@@H]12.Cl [TH],drug release sustainability,more sustainable as compared to that of ORO
